Results: ChEMBL document CHEMBL5385906, “Discovery of a Potent, Selective, and Orally Bioavailable Tool Compound for Probing the Role of Lysophosphatidic Acid Type 2 Receptor Antagonists in Fibrotic Disorders” (J Med Chem, 2023)
pIC50: −log10 of the molar value.

How the values were obtained:
[1] = in vivo; details: C57BL/6J, mouse, plasma, po, 30 mg/kg
[2] = molecular target: Lysophosphatidic acid receptor 1 (Homo sapiens, UniProt Q92633)
Description: Antagonist activity at human LPA1 receptor expressed in CHO cells assessed as inhibition of LPA-induced calcium mobilization pretreated for 15 mins followed by LPA stimulation by FLIPR analysis

[3] = molecular target: Lysophosphatidic acid receptor 2 (Homo sapiens, UniProt Q9HBW0)
Lysophosphatidic acid receptor 2 (Homo sapiens, UniProt Q9HBW0), sequence (Q9HBW0 whole entry): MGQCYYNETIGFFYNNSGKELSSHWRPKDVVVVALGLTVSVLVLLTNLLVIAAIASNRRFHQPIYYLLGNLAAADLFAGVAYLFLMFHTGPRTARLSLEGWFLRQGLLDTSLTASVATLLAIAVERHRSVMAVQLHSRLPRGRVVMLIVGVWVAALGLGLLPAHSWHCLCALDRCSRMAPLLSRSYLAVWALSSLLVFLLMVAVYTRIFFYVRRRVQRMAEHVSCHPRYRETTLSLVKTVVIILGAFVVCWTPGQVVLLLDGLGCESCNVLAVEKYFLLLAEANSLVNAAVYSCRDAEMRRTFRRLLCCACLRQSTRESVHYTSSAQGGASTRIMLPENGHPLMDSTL
Description: Antagonist activity at human LPA2 receptor expressed in CHO cells assessed as inhibition of LPA-induced calcium mobilization pretreated for 15 mins followed by LPA stimulation by FLIPR analysis

[4] = Apparent permeability across basolateral to apical side in human Caco-2 cells at 10 uM measured after 60 mins by LC-MS/MS analysis
[5] = Apparent permeability across apical to basolateral side in human Caco-2 cells at 10 uM measured after 60 mins by LC-MS/MS analysis
[6] = Protein binding in mouse lungs assessed as fraction unbound at 5 uM measured after 5 hrs by LC-MS/MS analysis
[7] = in vivo; details: C57BL/6J, mouse, plasma, po, 30 mg/kg; remark: listed apart in the source
[8] = Efflux ratio of apparent permeability across apical to basolateral to basolateral to apical side in human Caco-2 cells at 10 uM measured after 60 mins by LC-MS/MS analysis
[9] = in vivo; details: C57BL/6J, mouse, lung, po, 30 mg/kg
[10] = in vitro; details: C57BL/6J, mouse, liver microsomes
Description: Intrinsic clearance in C57BL/6J mouse liver microsomes at 0.5 uM in presence of NADPH regenerating system measured for 45 mins per mg protein by LC-MS/MS analysis

[11] = in vivo; details: C57BL/6J, mouse, lung, po, 30 mg/kg; remark: listed apart in the source
[12] = Half life in C57BL/6J mouse at 30 mg/kg, po and 2 mg/kg, iv by LC-MS/MS analysis; details: in vivo
[13] = Oral absorption in C57BL/6J mouse at 30 mg/kg by LC-MS/MS analysis; details: in vivo
[14] = in vitro; details: human, liver microsomes, CLH
Description: Intrinsic clearance in human liver microsomes at 0.5 uM in presence of NADPH regenerating system measured for 45 mins per mg protein by LC-MS/MS analysis

[15] = Protein binding in mouse plasma assessed as fraction unbound at 0.5 uM measured after 5 hrs by LC-MS/MS analysis
[16] = Protein binding in human plasma assessed as fraction unbound at 0.5 uM measured after 5 hrs by LC-MS/MS analysis
[17] = in vivo; details: C57BL/6J, mouse, po, 30 mg/kg
[18] = molecular target: T1, Lysophosphatidic acid receptor 2 (Mus musculus, UniProt Q9JL06); assay: Antagonist activity at mouse LPA2 receptor expressed in HeLa cells assessed as inhibition of LPA-induced calcium mobilization pretreated for 15 mins followed by LPA stimulation by FLIPR analysis; assay type: functional, cell-based; details: for IC50: read-out: pIC50 (converted); for pIC50: read-out: IC50
T1 sequence (Q9JL06 whole entry): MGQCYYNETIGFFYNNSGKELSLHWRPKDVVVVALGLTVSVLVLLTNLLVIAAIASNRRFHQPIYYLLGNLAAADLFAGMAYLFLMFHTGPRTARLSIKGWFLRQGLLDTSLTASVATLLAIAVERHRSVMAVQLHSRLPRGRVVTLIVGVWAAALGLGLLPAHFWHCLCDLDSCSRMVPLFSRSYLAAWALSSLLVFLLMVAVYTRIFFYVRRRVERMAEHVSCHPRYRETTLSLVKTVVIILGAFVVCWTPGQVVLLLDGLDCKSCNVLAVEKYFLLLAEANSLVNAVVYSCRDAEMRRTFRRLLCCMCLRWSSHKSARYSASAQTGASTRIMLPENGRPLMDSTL

[19] = in vivo; details: C57BL/6J, mouse, po, 24.8 mg/kg
Description: Oral absorption in C57BL/6J mouse at 24.8 mg/kg by LC-MS/MS analysis

[20] = in vivo; details: C57BL/6J, mouse, po, 24.8 mg/kg; remark: listed apart in the source
Description: Total AUC last in C57BL/6J mouse lungs at 24.8 mg/kg, po and 1.8 mg/kg, iv by LC-MS/MS analysis

[21] = in vivo; details: C57BL/6J, mouse, po, 24.8 mg/kg; remark: listed apart in the source
Description: Total Cmax in C57BL/6J mouse plasma at 24.8 mg/kg, po and 1.8 mg/kg, iv by LC-MS/MS analysis

[22] = in vivo; details: C57BL/6J, mouse, po, 24.8 mg/kg; remark: listed apart in the source
Description: Total Cmax in C57BL/6J mouse lungs at 24.8 mg/kg, po and 1.8 mg/kg, iv by LC-MS/MS analysis

[23] = in vivo; details: C57BL/6J, mouse, po, 24.8 mg/kg; remark: listed apart in the source
Description: Total AUC last in C57BL/6J mouse plasma at 24.8 mg/kg, po and 1.8 mg/kg, iv by LC-MS/MS analysis

[24] = in vivo; details: C57BL/6J, mouse, po, 24.8 mg/kg; remark: listed apart in the source
Description: Half life in C57BL/6J mouse at 24.8 mg/kg, po and 1.8 mg/kg, iv by LC-MS/MS analysis

[25] = in vivo; details: C57BL/6J, mouse, po, 24.8 mg/kg; remark: listed apart in the source
Description: Oral availability in C57BL/6J mouse at 24.8 mg/kg by LC-MS/MS analysis

[26] = Half life in C57BL/6J mouse at 5 mg/kg, po or 4 mg/kg, iv by UPLC-MS/MS analysis; details: in vivo
[27] = molecular target: Lysophosphatidic acid receptor 4 (Homo sapiens, UniProt Q99677)
Lysophosphatidic acid receptor 4, sequence (Q99677 whole entry): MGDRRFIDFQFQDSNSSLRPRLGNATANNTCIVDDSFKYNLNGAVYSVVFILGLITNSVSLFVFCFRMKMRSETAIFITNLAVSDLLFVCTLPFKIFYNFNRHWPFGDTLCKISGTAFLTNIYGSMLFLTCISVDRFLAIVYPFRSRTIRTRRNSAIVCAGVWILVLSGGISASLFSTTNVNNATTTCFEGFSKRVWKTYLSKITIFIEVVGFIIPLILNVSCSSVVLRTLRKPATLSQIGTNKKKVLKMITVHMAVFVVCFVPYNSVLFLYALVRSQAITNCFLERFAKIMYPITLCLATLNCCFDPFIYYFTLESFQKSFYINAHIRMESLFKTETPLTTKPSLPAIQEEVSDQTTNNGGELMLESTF

[28] = in vivo; details: C57BL/6J, mouse, po, 5 mg/kg
Description: Oral bioavailability in C57BL/6J mouse at 5 mg/kg by UPLC-MS/MS analysis

[29] = molecular target: Lysophosphatidic acid receptor 5 (Homo sapiens, UniProt Q9H1C0)
Lysophosphatidic acid receptor 5, sequence (Q9H1C0 whole entry): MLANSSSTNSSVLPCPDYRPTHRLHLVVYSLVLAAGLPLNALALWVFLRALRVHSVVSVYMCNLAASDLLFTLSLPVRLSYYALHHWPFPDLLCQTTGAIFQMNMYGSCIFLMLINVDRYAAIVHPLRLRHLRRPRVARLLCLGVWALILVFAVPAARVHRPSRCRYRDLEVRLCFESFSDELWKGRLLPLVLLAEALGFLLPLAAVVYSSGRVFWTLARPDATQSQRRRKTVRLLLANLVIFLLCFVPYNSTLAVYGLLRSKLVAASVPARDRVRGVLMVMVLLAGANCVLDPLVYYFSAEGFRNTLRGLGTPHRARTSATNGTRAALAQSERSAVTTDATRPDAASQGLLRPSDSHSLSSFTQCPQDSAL
Description: Antagonist activity at human LPA5 receptor expressed in HeLa cells assessed as inhibition of LPA-induced calcium mobilization pretreated for 15 mins followed by LPA stimulation by FLIPR analysis

[30] = molecular target: T1, Lysophosphatidic acid receptor 2
Description: Antagonist activity at LPA2 receptor expressed in C57BL/6 mouse primary alveolar epithelial cells assessed as inhibition of LPA-induced calcium mobilization pretreated for 15 mins followed by LPA stimulation by FLIPR analysis

[31] = molecular target: T2, Lysophosphatidic acid receptor 3 (Homo sapiens, UniProt Q9UBY5)
T2 sequence (Q9UBY5 whole entry): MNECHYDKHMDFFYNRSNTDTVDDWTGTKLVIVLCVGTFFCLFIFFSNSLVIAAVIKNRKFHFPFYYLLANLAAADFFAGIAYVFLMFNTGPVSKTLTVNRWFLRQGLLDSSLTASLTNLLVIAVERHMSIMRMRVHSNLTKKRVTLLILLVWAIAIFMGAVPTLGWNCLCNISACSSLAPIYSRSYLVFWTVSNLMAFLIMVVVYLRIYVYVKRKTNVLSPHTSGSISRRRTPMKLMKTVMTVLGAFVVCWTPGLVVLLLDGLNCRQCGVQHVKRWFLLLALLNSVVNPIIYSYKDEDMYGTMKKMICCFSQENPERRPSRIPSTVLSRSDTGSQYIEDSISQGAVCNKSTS
Description: Antagonist activity at human LPA3 receptor expressed in HeLa cells assessed as inhibition of LPA-induced calcium mobilization pretreated for 15 mins followed by LPA stimulation by FLIPR analysis

[32] = in vivo; details: C57BL/6J, mouse, plasma, po, 24.3 mg/kg
Description: Total Cmax in C57BL/6J mouse plasma at 24.3 mg/kg, po and 1.4 mg/kg, iv by UPLC-MS/MS analysis

[33] = in vivo; details: C57BL/6J, mouse, lungs, po, 24.3 mg/kg
Description: Total Cmax in C57BL/6J mouse lungs at 24.3 mg/kg, po and 1.4 mg/kg, iv by UPLC-MS/MS analysis

[34] = Clearance in C57BL/6J mouse at 1.4 mg/kg, iv by UPLC-MS/MS analysis; details: in vivo
[35] = in vivo; details: C57BL/6J, mouse, plasma, po, 24.3 mg/kg; remark: listed apart in the source
Description: Total AUClast in C57BL/6J mouse plasma at 24.3 mg/kg, po and 1.4 mg/kg, iv by UPLC-MS/MS analysis

[36] = in vivo; details: C57BL/6J, mouse, lung and plasma, po, 24.3 mg/kg
Description: Ratio of total AUC in lung to plasma in C57BL/6J mouse at 24.3 mg/kg, po and 1.4 mg/kg, iv by UPLC-MS/MS analysis

[37] = in vivo; details: C57BL/6J, mouse, po, 24.3 mg/kg
Description: Oral bioavailability in C57BL/6J mouse at 24.3 mg/kg by UPLC-MS/MS analysis

[38] = in vivo; details: C57BL/6J, mouse, po, 24.3 mg/kg; remark: listed apart in the source
Description: Half life in C57BL/6J mouse at 24.3 mg/kg, po and 1.4 mg/kg, iv by UPLC-MS/MS analysis

[39] = in vivo; details: C57BL/6J, mouse, po, 24.3 mg/kg; remark: listed apart in the source
Description: Oral absorption in C57BL/6J mouse at 24.3 mg/kg by UPLC-MS/MS analysis

[40] = in vivo; details: C57BL/6J, mouse, lungs, po, 24.3 mg/kg; remark: listed apart in the source
Description: Total AUClast in C57BL/6J mouse lungs at 24.3 mg/kg, po and 1.4 mg/kg, iv by UPLC-MS/MS analysis

Lysophosphatidic acid receptor 1, sequence (Q92633 whole entry): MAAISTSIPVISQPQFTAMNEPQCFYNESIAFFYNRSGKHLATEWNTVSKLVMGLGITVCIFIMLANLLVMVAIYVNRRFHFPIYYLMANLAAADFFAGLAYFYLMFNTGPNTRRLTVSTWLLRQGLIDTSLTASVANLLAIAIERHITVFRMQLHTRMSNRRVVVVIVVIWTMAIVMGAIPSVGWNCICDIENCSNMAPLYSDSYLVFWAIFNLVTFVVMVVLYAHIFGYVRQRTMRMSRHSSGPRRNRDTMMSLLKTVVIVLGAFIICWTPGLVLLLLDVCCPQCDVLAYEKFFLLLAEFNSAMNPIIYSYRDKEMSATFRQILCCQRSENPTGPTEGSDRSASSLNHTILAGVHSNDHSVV

| Structure (SMILES) | Cmax [1] | pIC50 [2] | pIC50 [3] | Papp B→A at 1 h, 10 µM [4] | Papp A→B at 1 h, 10 µM [5] | fraction unbound at 5 h, 5 µM [6] | AUC(0-t) [7] | efflux ratio at 1 h, 10 µM [8] | Cmax [9] | microsomal CLint at 0.75 h, 0.5 µM [10] | AUC(0-t) [11] | half-life [12] | Fa [13] | microsomal CLint at 0.75 h, 0.5 µM [14] | fraction unbound at 5 h, 0.5 µM [15] | fraction unbound at 5 h, 0.5 µM [16] | bioavailability [17] | IC50 [18] | further results |
| --- | --- | --- | --- | --- | --- | --- | --- | --- | --- | --- | --- | --- | --- | --- | --- | --- | --- | --- | --- |
| COC(=O)Nc1nc(C)c(S(=O)(=O)N2CCN(C[C@H](C)Nc3ncnc4c(-c5cccc(CN(C)C)c5)cccc34)CC2)s1 | 12100 ng/mL | < 4.30 | 9.48 | 10.6 ×10⁻⁶ cm/s | 0.18 ×10⁻⁶ cm/s | 0.0177 | 34200 ng·h/mL | 60 | 7030 ng/mL | 108 µL/min/mg | 43200 ng·h/mL | 2.6 h | 17% | 38 µL/min/mg | 0.0124 | 0.0003 | 16% | 4.79 nM |  |
| COC(=O)Nc1nc(C)c(S(=O)(=O)N2CCN(C[C@H](C)Nc3ncnc4c(-c5c(C)noc5C)cccc34)CC2)s1 | 76200 ng/mL | < 4.30 | 9.12 | 9.29 ×10⁻⁶ cm/s | 1.47 ×10⁻⁶ cm/s | 0.0185 | 124000 ng·h/mL | 6.3 | 15100 ng/mL | 94 µL/min/mg | 25800 ng·h/mL | 1.32 h | 96% | 89 µL/min/mg | 0.0043 | < 0.01 | 92% | 28.2 nM |  |
| COC(=O)Nc1nc(C)c(S(=O)(=O)N2CCN(C[C@H](C)Nc3ncnc4c(-c5cn(C)nc5C(F)(F)F)cccc34)CC2)s1 |  | < 4.30 | 9.46 | 6.41 ×10⁻⁶ cm/s | 2.23 ×10⁻⁶ cm/s | 0.0122 |  | 2.9 |  | 125 µL/min/mg |  |  |  | 52 µL/min/mg | 0.0015 | < 0.01 |  | 2.04 nM | Fa [19]: 100%; AUC(0-t) [20]: 78000 ng·h/mL; Cmax [21]: 70100 ng/mL; Cmax [22]: 19000 ng/mL; AUC(0-t) [23]: 418000 ng·h/mL; half-life [24]: 1.69 h; bioavailability [25]: 89% |
| COC(=O)Nc1nc(C)c(S(=O)(=O)N2CCN(C[C@H](C)Nc3ncnc4c(-c5cccnc5)cccc34)CC2)s1 |  | < 5.30 |  |  |  |  |  |  |  |  |  |  |  |  |  |  |  | 2.57 nM |  |
| Cc1cccc2c(NC(C)CN3CCN(S(=O)(=O)c4ccc(Cl)c(Cl)c4)CC3)ncnc12 (stereo in doubt; 42b) |  | 4.90 | 5.38 |  |  |  |  |  |  | 698 µL/min/mg |  |  |  | 789 µL/min/mg |  |  |  |  |  |
| Cc1csc2c(N[C@@H](C)CN3CCN(S(=O)(=O)c4ccc(Cl)c(Cl)c4)CC3)ncnc12 |  | 5.01 | 6.17 | 0.91 ×10⁻⁶ cm/s | 0.89 ×10⁻⁶ cm/s | 0.001 |  | 1 |  | > 759 µL/min/mg |  |  |  | 758 µL/min/mg | 0.0065 | 0.004 |  | 295 nM | half-life [26]: 1 h; pIC50 [27]: 5.20; bioavailability [28]: 0.23%; pIC50 [29]: < 4.30; pIC50 [30]: 6.49; pIC50 [31]: 4.41 |
| COC(=O)Nc1nc(C)c(S(=O)(=O)N2CCN(C[C@H](C)Nc3ncnc4c(-c5ccc(F)c(CN(C)C)c5)cccc34)CC2)s1 |  | < 4.30 |  |  |  |  |  |  |  |  |  |  |  |  |  |  |  |  | pIC50 [18]: 8.19 |
| COC(=O)Nc1nc(C)c(S(=O)(=O)N2CCN(C[C@H](C)Nc3ncnc4c(-c5cccc(CN6CCCC6)c5)cccc34)CC2)s1 | 4230 ng/mL | < 4.30 | 9.55 | 8.95 ×10⁻⁶ cm/s | 0.09 ×10⁻⁶ cm/s | 0.0187 | 12900 ng·h/mL | 98.1 | 2680 ng/mL | 133 µL/min/mg | 19500 ng·h/mL | 2.45 h | 9% | 104 µL/min/mg | 0.0059 | < 0.01 | 7% | 4.57 nM |  |
| COC(=O)Nc1nc(C)c(S(=O)(=O)N2CCN(C[C@H](C)Nc3ncnc4c(-c5sc(C)nc5C)cccc34)CC2)s1 | 72300 ng/mL | < 6.30 | 9.60 | 5.39 ×10⁻⁶ cm/s | 9.2 ×10⁻⁶ cm/s | 0.022 | 230000 ng·h/mL | 0.6 | 19900 ng/mL | 15 µL/min/mg | 56200 ng·h/mL | 1.88 h | 76% | 15 µL/min/mg | 0.0372 | 0.0002 | 64% | 6.92 nM |  |
| COC(=O)Nc1nc(C)c(S(=O)(=O)N2CCN(C[C@H](C)Nc3ncnc4c(C)csc34)CC2)s1 |  | < 4.30 | 6.32 | 13.5 ×10⁻⁶ cm/s | 8.12 ×10⁻⁶ cm/s | 0.0385 |  | 1.7 |  | 156 µL/min/mg |  |  |  | 80 µL/min/mg | 0.0023 | < 0.01 |  |  | Cmax [32]: 91300 ng/mL; Cmax [33]: 25300 ng/mL; clearance [34]: 0.82 mL/min/kg; AUC(0-t) [35]: 435000 ng·h/mL; Kp [36]: 0.27; pIC50 [27]: 4.62; bioavailability [37]: 85%; half-life [38]: 2.17 h; Fa [39]: 91%; pIC50 [18]: 5.15; pIC50 [31]: < 4.30; AUC(0-t) [40]: 119000 ng·h/mL |
| COC(=O)Nc1nc(C)c(S(=O)(=O)N2CCN(C[C@H](C)Nc3ncnc4c(-c5cccnc5C)cccc34)CC2)s1 | 81200 ng/mL | < 4.30 | 9.35 | 11.2 ×10⁻⁶ cm/s | 4.17 ×10⁻⁶ cm/s | 0.0531 | 163000 ng·h/mL | 2.7 | 8450 ng/mL | 13 µL/min/mg | 24300 ng·h/mL | 1.74 h | 76% | 21 µL/min/mg | 0.0616 |  | 67% | 6.46 nM |  |
| COC(=O)Nc1nc(C)c(S(=O)(=O)N2CCN(C[C@H](C)Nc3ncnc4c(C(=O)N(C)C)cccc34)CC2)s1 |  |  |  |  |  |  |  |  |  |  |  |  |  |  |  |  |  | 3980 nM |  |
| CC(CN1CCN(S(=O)(=O)c2ccc(Cl)c(Cl)c2)CC1)Nc1ncnc2c(-c3ccccc3)csc12 (racemic) |  | < 4.30 | 5.46 |  |  |  |  |  |  | 270 µL/min/mg |  |  |  | 228 µL/min/mg |  |  |  |  |  |
| COC(=O)Nc1nc(C)c(S(=O)(=O)N2CCN(C[C@H](C)Nc3ncnc4c(-c5ccc(CN6CCCC6)cc5)cccc34)CC2)s1 |  |  |  |  |  |  |  |  |  |  |  |  |  |  |  |  |  | 17.4 nM |  |
